Assay results taken from patent publication US10472341B2, “Bicyclic tetrahydrothiazepine derivatives useful for the treatment of neoplastic and/or infectious diseases” (APEIRON BIOLOGICS AG, priority 2015, dated 2019).
Structures can show the parent of a compound that is named as a salt. Where two headings read alike, the source gives them in different places.

Assays:
Type in all cases: cell-based
[1] = system: aCD3/aCD28-stimulated human CD4+-T-cells; test: IL-2 production and activation markers in aCD3/aCD28 stimulated isolated human CD4+-T-cells; details: IL-2 production at 3 μM compound
Summary of the method: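 CD4+ T cells isolated from buffy-coat PBMCs by microbeads were plated in Xvivo medium (1.5*10^5 cells/well) and stimulated with anti-CD3/28 mAbs plus compound. IL-2 measured by ELISA in supernatants at 24 h or 48 h; CD25 and proliferation by flow cytometry, CD69 at 24 h. Activity classes based on IL-2 at 3 μM compound.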

CD4 T cells = test: CD69 expression on aCD3/aCD28 stimulated isolated human CD4 T cells (flow cytometry); details: 24 h after TCR stimulation, read-out: Activity Class CD69 (CD4)
Description: (§1) Isolated T cells were plated in Xvivo medium at 1.5*10 ^5 cells per in 96 well culture plates and TCR-stimulated with anti-CD3/28 mAbs in the presence of compound as indicated. Cytokine production was determined at 24 h or 48 h following TCR stimulation in cell culture supernatants using commercially available ELISA kits (BD and eBioscience) as recommended by the manufacturer. T cell proliferation and CD25 expression (CD25-PC5 reagent purchased from Beckman Coulter) was determined by flow cytometry (Beckman-Coulter FC500) and analysed with Kaluza Software. For measurement of CD69 expression, isolated CD4 and CD8 T cells were plated in Xvivo medium at […] per in 96 well culture plates and TCR-stimulated with anti-CD3/28 mAbs in the presence of compound. CD69 expression was determined at 24 h following TCR stimulation by flow cytometry (CD4eF450, CD8APCeF780 and CD69-PC7 reagent purchased from eBioscience) and analysed with Kaluza Software.
(§2) For measurement of CD69 expression, isolated CD4 and CD8 T cells were plated in Xvivo medium at 80000 cells per in 96 well culture plates and TCR-stimulated with anti-CD3/28 mAbs in the presence of compound. CD69 expression was determined at 24 h following TCR stimulation by flow cytometry (CD4eF450, CD8APCeF780 and CD69-PC7 reagent purchased from eBioscience) and analysed with Kaluza Software.

[2] = system: aCD3/aCD28-stimulated human PBMCs; test: Cytokine production in aCD3/aCD28 stimulated human PBMCs; details: PBMC, 18 h
Summary of the method: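 Compound effects measured in buffy-coat PBMCs activated 18 h at 37° C by 1 μg/mL each of soluble anti-CD3 (OKT3) and anti-CD28 (28.2), 1e6 cells/mL. Cytokines in harvested supernatants read by MSD or HTRF.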

CD8 T cells = test: CD69 expression on aCD3/aCD28 stimulated isolated human CD8 T cells (flow cytometry); details: T-cell, 24 h after TCR stimulation, read-out: Activity Class CD69 (CD8)
Description: as §1, §2

[3] = enhancement of IFN-γ production, read-out: Activity Class IFN-γ
[4] = enhancement of IL-2 production, read-out: Activity Class IL-2

Row | SMILES | EC50 (CD4 T cells) | EC50 (CD8 T cells) | Activity Class CD4+ [1] | EC50 [2, 3] | EC50 [2, 4]
1 | Cl.N[C@H]1CS(=O)(=O)c2cc(F)c(C(=O)NCC3CCOCC3)cc2N(Cc2ccc(OC(F)(F)F)cc2)C1=O [Example 72, (3R)-3-amino-8-fluoro-N-(oxan-4-ylmethyl)-1,1,4-trioxo-5-{[4-(trifluoromethoxy)-phenyl]methyl}-2,3,4,5-tetrahydro-1λ^6,5-benzothiazepine-7-carboxamide hydrochloride] | < 1580 nM | 1580 to 5010 nM | A (IL-2 production at 3 μM compound concentration >10 ng/mL) | < 1580 nM | < 1580 nM
2 | N[C@H]1CS(=O)(=O)c2ccc(C(=O)N[C@@H]3CC3(F)F)cc2N(Cc2ccc(OC(F)F)cc2)C1=O [Example 160, (3R)-3-amino-N-[(1R)-2,2-difluorocyclopropyl]-5-{[4-(difluoromethoxy)phenyl]methyl}-1,1,4-trioxo-2,3,4,5-tetrahydro-1λ^6,5-benzothiazepine-7-carboxamide] | < 1580 nM | 1580 to 5010 nM |  | > 5010 nM | > 5010 nM
3 | N[C@H]1CS(=O)(=O)c2cc(F)c(C(=O)NCCCC(F)(F)F)cc2N(Cc2ccccc2)C1=O [Example 136, (3R)-3-amino-5-benzyl-8-fluoro-1,1,4-trioxo-N-(4,4,4-trifluorobutyl)-2,3,4,5-tetrahydro-1λ^6,5-benzothiazepine-7-carboxamide hydrochloride] | < 1580 nM | < 1580 nM |  | < 1580 nM | < 1580 nM
4 | N[C@H]1CS(=O)(=O)c2ccc(C(=O)N[C@@H]3CC3(F)F)cc2N(Cc2ccc(C(F)(F)F)cc2)C1=O [Example 179, (3R)-3-amino-N-[(1R)-2,2-difluorocyclopropyl]-1,1,4-trioxo-5-{[4-(trifluoromethyl)phenyl]methyl}-2,3,4,5-tetrahydro-1λ^6,5-benzothiazepine-7-carboxamide] | < 1580 nM | < 1580 nM |  | 1580 to 5010 nM | < 1580 nM
5 | COc1ccc(CN2C(=O)[C@@H](N)CS(=O)(=O)c3cc(F)c(C(=O)NCC4CCOCC4)cc32)cc1 [Example 142, (3R)-3-amino-8-fluoro-5-[(4-methoxyphenyl)methyl]-N-[(oxan-4-yl)methyl]-1,1,4-trioxo-2,3,4,5-tetrahydro-1λ^6,5-benzothiazepine-7-carboxamide] | > 5010 nM | > 5010 nM |  | 1580 to 5010 nM | 1580 to 5010 nM
6 | Cl.N[C@H]1CS(=O)(=O)c2cc(F)c(C(=O)NC3CCC(F)(F)C3)cc2N(Cc2ccc(Cl)cc2)C1=O (stereo partly drawn) [Example 105, (3R)-3-amino-5-[(4-chlorophenyl)methyl]-N-(3,3-difluorocyclopentyl)-8-fluoro-1,1,4-trioxo-2,3,4,5-tetrahydro-1λ^6,5-benzothiazepine-7-carboxamide hydrochloride] | < 1580 nM | < 1580 nM | A (IL-2 production at 3 μM compound concentration >10 ng/mL) | < 1580 nM | < 1580 nM
7 | C#CCOc1ccc(CNC(=O)c2cc3c(cc2F)S(=O)(=O)C[C@H](N)C(=O)N3Cc2ccc(Cl)cc2)cc1 [Example 178, (3R)-3-amino-5-[(4-chlorophenyl)methyl]-8-fluoro-1,1,4-trioxo-N-{[4-(prop-2-yn-1-yloxy)phenyl]methyl}-2,3,4,5-tetrahydro-1λ^6,5-benzothiazepine-7-carboxamide] | < 1580 nM | < 1580 nM |  | < 1580 nM | < 1580 nM
8 | N[C@H]1CS(=O)(=O)c2ccc(C(=O)NCC3CC(F)(F)C3)cc2N(Cc2ccc(Cl)cc2)C1=O [Example 171, (3R)-3-amino-5-[(4-chlorophenyl)methyl]-N-[(3,3-difluorocyclobutyl)methyl]-1,1,4-trioxo-2,3,4,5-tetrahydro-1λ^6,5-benzothiazepine-7-carboxamide] | < 1580 nM | < 1580 nM |  | 1580 to 5010 nM | < 1580 nM
9 | Cl.N[C@H]1CS(=O)(=O)c2cc(F)c(C(=O)N[C@@H]3CC3(F)F)cc2N(Cc2ccc(Cl)cc2)C1=O (single isomer, unassigned) [Example 106, hydrochloride] | 1580 to 5010 nM | 1580 to 5010 nM |  | 1580 to 5010 nM | 1580 to 5010 nM
10 | Cl.N[C@H]1CS(=O)(=O)c2cc(F)c(C(=O)NCC3CCOCC3)cc2N(Cc2ccc(Cl)cc2)C1=O [Example 71, (3R)-3-amino-5-[(4-chlorophenyl)methyl]-8-fluoro-N-(oxan-4-ylmethyl)-1,1,4-trioxo-2,3,4,5-tetrahydro-1λ^6,5-benzothiazepine-7-carboxamide hydrochloride] | < 1580 nM | < 1580 nM | B (IL-2 production at 3 μM compound concentration between 2-10 ng/mL) | < 1580 nM | < 1580 nM
11 | N[C@H]1CS(=O)(=O)c2cc(F)c(C(=O)NC3CCC(F)(F)CC3)cc2N(Cc2ccc(Cl)cc2)C1=O [Example 126, (3R)-3-amino-5-[(4-chlorophenyl)methyl]-N-(4,4-difluorocyclohexyl)-8-fluoro-1,1,4-trioxo-2,3,4,5-tetrahydro-1λ^6,5-benzothiazepine-7-carboxamide hydrochloride] | < 1580 nM | < 1580 nM |  | < 1580 nM | < 1580 nM
12 | N[C@H]1CS(=O)(=O)c2cc(F)c(C(=O)NC3CC3C(F)(F)F)cc2N(Cc2ccc(Cl)cc2)C1=O (stereo partly drawn) [Example 127, (3R)-3-amino-5-[(4-chlorophenyl)methyl]-8-fluoro-1,1,4-trioxo-N-[2-(trifluoromethyl)cyclopropyl]-2,3,4,5-tetrahydro-1λ^6,5-benzothiazepine-7-carboxamide hydrochloride] | < 1580 nM | < 1580 nM |  | < 1580 nM | 1580 to 5010 nM

More lines, main results first:

Row | EC50 (CD4 T cells) | EC50 (CD8 T cells) | SMILES | Activity Class CD4+ [1] | EC50 [2, 3] | EC50 [2, 4]
13 | < 1580 nM | < 1580 nM | Cl.N[C@H]1CS(=O)(=O)c2cc(F)c(C(=O)NCc3ccc(F)cc3)cc2N(Cc2ccc(Cl)cc2)C1=O [Example 68, (3R)-3-amino-5-[(4-chlorophenyl)methyl]-8-fluoro-N-[(4-fluorophenyl)methyl]-1,1,4-trioxo-2,3,4,5-tetrahydro-1λ^6,5-benzothiazepine-7-carboxamide hydrochloride] | A (IL-2 production at 3 μM compound concentration >10 ng/mL) | < 1580 nM | < 1580 nM
14 | < 1580 nM | < 1580 nM | Cl.N[C@H]1CS(=O)(=O)c2cc(F)c(C(=O)NCCCC(F)(F)F)cc2N(Cc2ccc(OC(F)(F)F)cc2)C1=O [Example 73, (3R)-3-amino-8-fluoro-1,1,4-trioxo-N-(4,4,4-trifluorobutyl)-5-{[4-(trifluoromethoxy)-phenyl]methyl}-2,3,4,5-tetrahydro-1λ^6,5-benzothiazepine-7-carboxamide hydrochloride] | A (IL-2 production at 3 μM compound concentration >10 ng/mL) | < 1580 nM | < 1580 nM
15 | < 1580 nM | < 1580 nM | CCCCNC(=O)c1cc2c(cc1F)S(=O)(=O)C[C@H](N)C(=O)N2Cc1ccc(Cl)cc1.Cl [Example 69, (3R)-3-amino-N-butyl-5-[(4-chlorophenyl)methyl]-8-fluoro-1,1,4-trioxo-2,3,4,5-tetrahydro-1λ^6,5-benzothiazepine-7-carboxamide hydrochloride] | A (IL-2 production at 3 μM compound concentration >10 ng/mL) | < 1580 nM | < 1580 nM
16 | < 1580 nM | < 1580 nM | N[C@H]1CS(=O)(=O)c2cc(F)c(C(=O)NCCCC(F)(F)F)cc2N(Cc2ccc(F)cc2)C1=O [Example 129, (3R)-3-amino-8-fluoro-5-[(4-fluorophenyl)methyl]-1,1,4-trioxo-N-(4,4,4-trifluorobutyl)-2,3,4,5-tetrahydro-1λ^6,5-benzothiazepine-7-carboxamide hydrochloride] |  | < 1580 nM | 1580 to 5010 nM
17 | > 5010 nM | > 5010 nM | CCCCNC(=O)c1cc2c(cc1F)SC[C@H](N)C(=O)N2Cc1ccc(F)cc1 [Example 131, (3R)-3-amino-N-butyl-8-fluoro-5-[(4-fluorophenyl)methyl]-4-oxo-2,3,4,5-tetrahydro-1,5-benzothiazepine-7-carboxamide hydrochloride] |  | 1580 to 5010 nM | > 5010 nM
18 | < 1580 nM | < 1580 nM | N[C@H]1CS(=O)(=O)c2cc(F)c(C(=O)NCc3ccccc3)cc2N(Cc2ccc(F)cc2)C1=O [Example 134, (3R)-3-amino-N-benzyl-8-fluoro-5-[(4-fluorophenyl)methyl]-1,1,4-trioxo-2,3,4,5-tetrahydro-1λ^6,5-benzothiazepine-7-carboxamide hydrochloride] |  | < 1580 nM | < 1580 nM
